Test results reported in PMC9029360, “Cyclooxygenase-Inhibiting Platinum(IV) Prodrugs with Potent Anticancer Activity” (Pharmaceutics, 2022).
Like-named read-outs stand apart in the source and are kept apart here.

Key:
A431 skin [1] = details: MTT, 72 h, ref [2] Macias et al., Eur. J. Chem. 2015; cited from earlier work
[2] = system: MCF10A breast cell line (non-tumour derived); details: MTT, 72 h, ref [2] Macias et al., Eur. J. Chem. 2015; cited from earlier work
BE2-C neuroblastoma [3] = details: MTT, 72 h, ref [2] Macias et al., Eur. J. Chem. 2015; cited from earlier work
[4] = system: cisplatin-resistant ADDP ovarian (subclone of A2780 cell line); details: MTT, 72 h, ref [2] Macias et al., Eur. J. Chem. 2015; cited from earlier work
MIA pancreas [5] = details: MTT, 72 h, ref [2] Macias et al., Eur. J. Chem. 2015; cited from earlier work
SJ-G2 glioblastoma [6] = details: MTT, 72 h, ref [2] Macias et al., Eur. J. Chem. 2015; cited from earlier work
U87 glioblastoma [7] = details: MTT, 72 h, ref [2] Macias et al., Eur. J. Chem. 2015; cited from earlier work
[8] = system: cisplatin-resistant ADDP ovarian (subclone of A2780 cell line); experiment: In vitro cytotoxicity MTT assay, cisplatin-resistant ADDP ovarian; format: cell-based
[9] = system: Du145 prostate cancer cell line; details: MTT, 72 h, ref [2] Macias et al., Eur. J. Chem. 2015; cited from earlier work
MCF-7 breast [10] = details: MTT, 72 h, ref [2] Macias et al., Eur. J. Chem. 2015; cited from earlier work
[11] = system: A2780 (ovarian) and ADDP (cisplatin-resistant ovarian) cancer cell lines; experiment: Cellular platinum accumulation by ICP-MS; format: cell-based; details: 4 h
[12] = system: HT29 colon cancer cell line; details: MTT, 72 h, ref [2] Macias et al., Eur. J. Chem. 2015; cited from earlier work
ADDP cell line = experiment: Cellular platinum accumulation by ICP-MS, ADDP; format: cell-based
H460 lung [13] = details: MTT, 72 h, ref [2] Macias et al., Eur. J. Chem. 2015; cited from earlier work
A2780 ovarian [14] = details: MTT, 72 h, ref [2] Macias et al., Eur. J. Chem. 2015; cited from earlier work
[15] = system: HT29 colon cancer cell line; experiment: In vitro cytotoxicity MTT assay, HT29 colon; format: cell-based; details: Homo sapiens, HT-29, 72 h drug exposure, n = 3
human COX-2 [16] = biological target: T1, human COX-2 (Homo sapiens, UniProt P35354); experiment: biochemical; details: read-out: COX-2 inhibition
T1 sequence (P35354 18-604): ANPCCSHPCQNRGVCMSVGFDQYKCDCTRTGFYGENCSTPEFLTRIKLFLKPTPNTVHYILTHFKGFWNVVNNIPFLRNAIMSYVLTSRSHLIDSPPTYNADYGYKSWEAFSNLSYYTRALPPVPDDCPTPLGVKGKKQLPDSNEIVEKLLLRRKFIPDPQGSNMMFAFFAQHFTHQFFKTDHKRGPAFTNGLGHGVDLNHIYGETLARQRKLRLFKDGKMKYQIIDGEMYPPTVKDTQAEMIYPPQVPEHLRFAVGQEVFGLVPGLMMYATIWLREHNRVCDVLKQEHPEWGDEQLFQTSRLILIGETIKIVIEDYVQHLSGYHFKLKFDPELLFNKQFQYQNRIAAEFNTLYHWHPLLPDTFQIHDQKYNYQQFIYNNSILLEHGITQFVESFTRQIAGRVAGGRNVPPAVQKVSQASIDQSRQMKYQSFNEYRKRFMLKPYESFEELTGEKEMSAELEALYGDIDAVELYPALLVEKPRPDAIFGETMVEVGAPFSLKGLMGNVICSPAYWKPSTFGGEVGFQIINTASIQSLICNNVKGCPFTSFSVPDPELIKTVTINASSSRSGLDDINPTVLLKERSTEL
Procedure: (§1) The preparation of standards and samples and the completion of the assay were carried out following the manufacturer’s protocol. As described below, the completion of the assay required three main steps: the preparation of standards, the COX reaction and EIA.
(§2) The preparation of standards involved serial dilution of the prostaglandin (PG)-screening ELISA standard with ELISA buffer.
(§3) All tubes were incubated for 10 min at 37 °C. To initiate the reaction, arachidonic acid (10 µL) was added to each tube. This was incubated for 30 s at 37 °C before stannous chloride (30 µL) was added to stop enzyme catalysis. The tubes were removed from the water bath and vortexed, then incubated for five minutes at room temperature.
(§4) For EIA, ELISA buffer (100 µL) was added to non-specific binding (NSB) wells and ELISA buffer (50 µL) was added to maximum binding (B0) wells; 50 µL from each PG screening standard was added to the standard wells in duplicate. A background sample (50 µL) and COX 100% initial activity samples (50 µL) were added to the wells in duplicate. Each inhibitor sample (50 µL) was added to the wells in triplicate. PG screening acetylcholinesterase (AChE) tracer (50 µL) was added to all wells except for the total activity and blank wells. PG screening ELISA antiserum (50 µL) was added to each well except for the total activity, NSB and blank wells. The plate was covered with plastic film and incubated for 18 h at room temperature on an orbital shaker. The wells were emptied and rinsed with wash buffer five times. Ellman’s reagent (200 µL) was added to each well, followed by AChE tracer (5 µL) in the total activity well. The plate was covered with plastic film and left to develop in the dark using an orbital shaker at room temperature for one hour. The absorbance was recorded at 405 nm using a plate reader.

MIA pancreas [17] = experiment: In vitro cytotoxicity MTT assay, MIA pancreas; format: cell-based; details: 72 h drug exposure, n = 3
A431 skin [18] = experiment: In vitro cytotoxicity MTT assay, A431 skin; format: cell-based; details: Homo sapiens, A-431, 72 h drug exposure, n = 3
SJ-G2 glioblastoma [19] = experiment: In vitro cytotoxicity MTT assay, SJ-G2 glioblastoma; format: cell-based; details: 72 h drug exposure, n = 3
U87 glioblastoma [20] = experiment: In vitro cytotoxicity MTT assay, U87 glioblastoma; format: cell-based; details: 72 h drug exposure, n = 3
human COX-2 [21] = biological target: T1, human COX-2
Procedure: as §1, §2, §3, §4

BE2-C neuroblastoma [22] = experiment: In vitro cytotoxicity MTT assay, BE2-C neuroblastoma; format: cell-based; details: Homo sapiens, BE(2)-C, 72 h drug exposure, n = 3
[23] = system: MCF10A breast cell line (non-tumour derived); experiment: In vitro cytotoxicity MTT assay, non-tumour MCF10A breast; format: cell-based; details: Homo sapiens, MCF-10A, MCF10A (non-cancerous), 72 h drug exposure, n = 3
MCF-7 breast [24] = experiment: In vitro cytotoxicity MTT assay, MCF-7 breast; format: cell-based; details: Homo sapiens, MCF7, 72 h drug exposure, n = 3
[25] = system: Du145 prostate cancer cell line; experiment: In vitro cytotoxicity MTT assay, Du145 prostate; format: cell-based; details: Homo sapiens, DU-145, 72 h drug exposure, n = 3
A2780 ovarian [26] = experiment: In vitro cytotoxicity MTT assay, A2780 ovarian; format: cell-based; details: Homo sapiens, 72 h drug exposure, n = 3
H460 lung [27] = experiment: In vitro cytotoxicity MTT assay, H460 lung; format: cell-based; details: Homo sapiens, NCI-H460, 72 h drug exposure, n = 3

Question: What does the source list for `N.N.[Cl][Pt][Cl]` [Cisplatin, cisplatin]?
Answer: GI50 (A431 skin [1]): 2.4 ± 0.3 µM; GI50 [2]: 5.2 µM; GI50 (BE2-C neuroblastoma [3]): 1.9 ± 0.2 µM; GI50 [4]: 28 µM; GI50 (MIA pancreas [5]): 7.5 µM; GI50 (SJ-G2 glioblastoma [6]): 0.4 µM; GI50 (U87 glioblastoma [7]): 3.8 µM; fold less active than PHENSS(IV) (GI50 values) ([8]; ADDP cell line): ~ 22 fold; fold decrease in activity in the cisplatin-resistant ADDP cell line compared to the A2780 cell line ([8]; ratio of GI50 values ADDP vs A2780): 28 fold; GI50 [9]: 1.2 ± 0.1 µM; GI50 (MCF-7 breast [10]): 6.5 ± 0.8 µM; cellular platinum uptake (rank in words) [11]: lowest uptake; GI50 [12]: 11.3 µM; uptake level, fold lower than PHENSS(IV) (ADDP cell line): ~ two-fold; GI50 (H460 lung [13]): 0.9 ± 0.2 µM; GI50 (A2780 ovarian [14]): 1 ± 0.1 µM

Question: For `CC(=O)Oc1ccccc1C(=O)O` [Aspirin, aspirin], which GI50 [15] is on record?
Answer: > 50 µM

Question: And the inhibition at 700 µM (human COX-2 [16])?
Answer: 19%

Question: And the GI50 (MIA pancreas [17])?
Answer: > 50 µM

Question: What about the GI50 (A431 skin [18]) of the same compound?
Answer: > 50 µM

Question: What about the GI50 (SJ-G2 glioblastoma [19]) of the same compound?
Answer: > 50 µM

Question: And the GI50 (U87 glioblastoma [20])?
Answer: > 50 µM

Question: What about the COX-2 inhibition (human COX-2 [21]; at 7 µM) of the same compound?
Answer: No inhibition

Question: And the COX-2 inhibition (human COX-2 [21]; at 70 µM)?
Answer: No inhibition

Question: And the GI50 ([8]; Homo sapiens, A2780, ADDP (cisplatin-resistant), MTT, 72 h drug exposure, n = 3)?
Answer: > 50 µM

Question: What about the GI50 (BE2-C neuroblastoma [22]) of the same compound?
Answer: > 50 µM

Question: What about the GI50 [23] of the same compound?
Answer: > 50 µM

Question: What about the GI50 (MCF-7 breast [24]) of the same compound?
Answer: > 50 µM

Question: What about the GI50 [25] of the same compound?
Answer: > 50 µM

Question: And the GI50 (A2780 ovarian [26])?
Answer: > 50 µM

Question: And the GI50 (H460 lung [27])?
Answer: > 50 µM
